Assay results published in ChEMBL document CHEMBL1201862, “PubChem BioAssay data set” (2004).
Structures can show the parent of a compound that is named as a salt. Activity calls are given as the source filed them.

Columns and labels:
[1] = biological target: Luciferin 4-monooxygenase (Photinus pyralis, UniProt P08659); experiment: Counter Screen for Luciferase-based Assay Positives. [Related pubchem assays: 620, 618, 411 ]
[2] = biological target: Glyceraldehyde-3-phosphate dehydrogenase (Homo sapiens, UniProt P04406)
HT-1080 = experiment: HT1080 cell viability loss – fluorescence readout (AID 620); format: functional, cell-based; settings: Homo sapiens
[3] = biological target: Lysosomal acid glucosylceramidase (Homo sapiens, UniProt P04062); experiment: Dose response cell-based high throughput screening assay to identify enhancers of beta-glucosidase activity. [Related pubchem assays: 784 ]; format: functional
[4] = biological target: T1, Neuropeptide Y receptor type 1 (Homo sapiens, UniProt P25929); format: functional;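 further: HEK293 cells with a CNG channel challenged with NPY then isoproterenol; potency as antagonist that reverses NPY suppression of cAMP signal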
T1 sequence (P25929 whole entry): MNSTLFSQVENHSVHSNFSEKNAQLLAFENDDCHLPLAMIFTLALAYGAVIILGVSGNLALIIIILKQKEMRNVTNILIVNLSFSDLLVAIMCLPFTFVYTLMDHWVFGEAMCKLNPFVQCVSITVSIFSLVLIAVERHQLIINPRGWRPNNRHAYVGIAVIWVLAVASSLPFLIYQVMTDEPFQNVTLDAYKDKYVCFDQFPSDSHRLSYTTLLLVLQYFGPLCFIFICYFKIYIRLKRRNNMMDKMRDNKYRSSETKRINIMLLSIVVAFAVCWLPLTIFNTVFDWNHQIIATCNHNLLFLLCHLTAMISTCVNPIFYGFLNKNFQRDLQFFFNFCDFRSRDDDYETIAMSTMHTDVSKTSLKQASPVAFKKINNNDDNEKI

[5] = biological target: T2, Neuropeptide Y receptor type 2 (Homo sapiens, UniProt P49146); format: functional, cell-based;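 further: HEK293 cells expressing the receptor and a CNG channel; stimulus was NPY near EC95 followed by isoproterenol to raise cAMP; antagonist potency measured as restoring cAMP signal that NPY suppresses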
T2 sequence (P49146 whole entry): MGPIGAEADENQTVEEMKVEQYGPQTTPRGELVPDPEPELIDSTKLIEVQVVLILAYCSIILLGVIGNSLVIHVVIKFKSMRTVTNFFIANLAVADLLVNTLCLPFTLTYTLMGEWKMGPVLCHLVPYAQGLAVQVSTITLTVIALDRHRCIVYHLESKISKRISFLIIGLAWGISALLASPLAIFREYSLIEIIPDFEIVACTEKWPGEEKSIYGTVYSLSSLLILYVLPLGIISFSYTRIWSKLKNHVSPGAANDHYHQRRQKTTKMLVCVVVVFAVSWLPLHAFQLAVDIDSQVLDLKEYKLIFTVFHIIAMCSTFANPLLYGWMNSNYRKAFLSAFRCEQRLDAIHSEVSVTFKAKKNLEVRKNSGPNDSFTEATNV

[6] = biological target: T3, Short transient receptor potential channel 4 (Mus musculus, UniProt Q9QUQ5); experiment: block of DAMGO-driven TRPC4 calcium entry – cell-based, HEK293 TRPC4/mu-opioid, Fluo-4 calcium, dose response (AID 434942); format: functional;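 further: potency of inhibitors blocking the TRPC4 calcium response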
T3 sequence (Q9QUQ5 whole entry): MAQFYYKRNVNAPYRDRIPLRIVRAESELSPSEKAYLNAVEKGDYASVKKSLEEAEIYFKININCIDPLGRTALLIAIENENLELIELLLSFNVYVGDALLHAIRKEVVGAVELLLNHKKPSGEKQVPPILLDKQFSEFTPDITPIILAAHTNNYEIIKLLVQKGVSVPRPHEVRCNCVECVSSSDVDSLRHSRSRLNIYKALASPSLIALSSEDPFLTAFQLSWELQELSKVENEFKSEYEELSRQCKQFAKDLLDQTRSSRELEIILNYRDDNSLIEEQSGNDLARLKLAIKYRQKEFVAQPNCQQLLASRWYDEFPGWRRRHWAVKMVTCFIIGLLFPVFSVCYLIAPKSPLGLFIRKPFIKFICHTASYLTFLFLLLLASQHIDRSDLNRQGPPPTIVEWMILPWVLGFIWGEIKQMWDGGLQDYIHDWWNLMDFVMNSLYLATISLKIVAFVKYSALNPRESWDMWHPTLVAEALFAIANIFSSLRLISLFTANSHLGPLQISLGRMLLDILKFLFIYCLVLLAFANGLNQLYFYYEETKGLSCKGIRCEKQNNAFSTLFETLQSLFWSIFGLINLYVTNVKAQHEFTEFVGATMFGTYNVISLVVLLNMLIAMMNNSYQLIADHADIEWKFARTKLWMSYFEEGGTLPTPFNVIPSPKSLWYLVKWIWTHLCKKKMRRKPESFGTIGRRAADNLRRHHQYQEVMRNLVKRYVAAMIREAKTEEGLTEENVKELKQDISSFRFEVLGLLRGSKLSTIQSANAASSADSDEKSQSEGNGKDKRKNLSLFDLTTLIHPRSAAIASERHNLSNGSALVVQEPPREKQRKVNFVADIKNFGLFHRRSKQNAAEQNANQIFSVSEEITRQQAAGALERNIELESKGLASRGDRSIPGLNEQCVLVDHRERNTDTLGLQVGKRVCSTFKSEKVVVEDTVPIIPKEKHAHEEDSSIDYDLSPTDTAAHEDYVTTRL

Aspartyl aminopeptidase = biological target: T4, Aspartyl aminopeptidase (Plasmodium falciparum 3D7, UniProt Q8I2J3)
T4 sequence (Q8I2J3 whole entry): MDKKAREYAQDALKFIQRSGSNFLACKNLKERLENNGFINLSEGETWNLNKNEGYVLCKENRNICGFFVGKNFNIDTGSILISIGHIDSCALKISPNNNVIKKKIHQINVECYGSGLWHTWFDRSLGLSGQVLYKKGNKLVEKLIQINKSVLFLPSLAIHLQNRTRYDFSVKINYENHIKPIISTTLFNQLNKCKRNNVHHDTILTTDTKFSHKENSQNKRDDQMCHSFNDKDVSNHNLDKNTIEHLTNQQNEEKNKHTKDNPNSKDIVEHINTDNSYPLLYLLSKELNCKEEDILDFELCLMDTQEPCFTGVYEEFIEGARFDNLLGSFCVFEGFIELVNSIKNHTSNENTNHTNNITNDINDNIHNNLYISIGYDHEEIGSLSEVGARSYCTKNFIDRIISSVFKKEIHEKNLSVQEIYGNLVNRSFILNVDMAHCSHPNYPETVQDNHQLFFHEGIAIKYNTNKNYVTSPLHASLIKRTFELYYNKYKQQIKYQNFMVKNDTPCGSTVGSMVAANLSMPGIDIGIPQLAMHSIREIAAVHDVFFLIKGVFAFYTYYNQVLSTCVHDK

Procathepsin L = Procathepsin L (Homo sapiens, UniProt P07711)
Mucolipin-3 = biological target: T5, Mucolipin-3 (Homo sapiens, UniProt Q8TDD5); experiment: Dose response cell-based high-throughput screening assay for agonists of the transient receptor potential channel ML3 (TRPML3). [Related pubchem assays: 1526, 1424, 1448 ]; format: functional
T5 sequence (Q8TDD5 whole entry): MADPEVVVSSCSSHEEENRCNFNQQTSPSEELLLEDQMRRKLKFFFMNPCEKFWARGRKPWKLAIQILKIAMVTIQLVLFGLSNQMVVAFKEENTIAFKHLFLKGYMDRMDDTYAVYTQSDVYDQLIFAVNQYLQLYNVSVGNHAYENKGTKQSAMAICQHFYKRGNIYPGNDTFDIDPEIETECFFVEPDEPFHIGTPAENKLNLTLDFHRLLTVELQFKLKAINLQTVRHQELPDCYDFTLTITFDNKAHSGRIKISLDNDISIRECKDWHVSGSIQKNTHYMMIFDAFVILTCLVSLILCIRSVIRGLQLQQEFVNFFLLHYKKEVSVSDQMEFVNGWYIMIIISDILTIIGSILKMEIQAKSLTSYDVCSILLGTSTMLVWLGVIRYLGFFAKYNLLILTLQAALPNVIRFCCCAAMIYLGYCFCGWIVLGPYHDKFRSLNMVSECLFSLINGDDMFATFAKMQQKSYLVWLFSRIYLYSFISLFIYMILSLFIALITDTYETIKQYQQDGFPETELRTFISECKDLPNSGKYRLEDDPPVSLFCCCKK

Ion channel NompC = Ion channel NompC (Danio rerio, UniProt Q7T1G6); experiment: Fluorescence counterscreen assay for TRPML3 agonists: dose response cell-based high-throughput screening assay to identify agonists of the transient receptor potential channel N1 (TRPN1). [Related pubchem assays: 1526, 1424, 1448 ]; format: functional
[7] = biological target: T6, Rac GTPase-activating protein 1 (Homo sapiens, UniProt Q9H0H5); experiment: blockers of MgcRacGAP-driven Rac1 GTP hydrolysis – biochemical, ADP Hunter fluorescence, primary and confirmatory, confirmation (AID 624330); format: functional
T6 sequence (Q9H0H5 whole entry): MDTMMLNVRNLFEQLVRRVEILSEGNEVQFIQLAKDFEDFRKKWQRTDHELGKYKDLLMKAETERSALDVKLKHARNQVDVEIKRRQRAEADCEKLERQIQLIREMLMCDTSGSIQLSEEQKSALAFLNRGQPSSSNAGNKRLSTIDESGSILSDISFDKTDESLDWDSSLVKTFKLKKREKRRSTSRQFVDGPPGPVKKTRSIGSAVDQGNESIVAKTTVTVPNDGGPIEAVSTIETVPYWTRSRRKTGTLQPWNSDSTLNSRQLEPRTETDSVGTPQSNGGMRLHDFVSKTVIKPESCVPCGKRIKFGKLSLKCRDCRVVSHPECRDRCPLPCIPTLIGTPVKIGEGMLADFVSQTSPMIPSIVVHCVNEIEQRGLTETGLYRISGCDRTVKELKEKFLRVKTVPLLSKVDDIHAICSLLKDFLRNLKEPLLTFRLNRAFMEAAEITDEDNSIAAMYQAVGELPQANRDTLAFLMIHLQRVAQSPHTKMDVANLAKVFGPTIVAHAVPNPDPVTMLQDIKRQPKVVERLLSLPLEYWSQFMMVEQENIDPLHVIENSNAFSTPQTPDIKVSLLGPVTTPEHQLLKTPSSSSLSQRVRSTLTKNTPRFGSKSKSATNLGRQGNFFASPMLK

Albumin = Albumin (Bos taurus, UniProt P02769); experiment: Counterscreen for inhibitors of T-cell receptor (TCR)-CD3 interaction: Fluorescence-based biochemical high throughput dose response assay to identify inhibitors of T-cell receptor (TCR)-CD3 interaction using a TAMRA-labeled BSA probe.; format: functional
[8] = biological target: T7, Histone-lysine N-methyltransferase NSD2 (Homo sapiens, UniProt O96028); format: biochemical
T7 sequence (O96028 whole entry): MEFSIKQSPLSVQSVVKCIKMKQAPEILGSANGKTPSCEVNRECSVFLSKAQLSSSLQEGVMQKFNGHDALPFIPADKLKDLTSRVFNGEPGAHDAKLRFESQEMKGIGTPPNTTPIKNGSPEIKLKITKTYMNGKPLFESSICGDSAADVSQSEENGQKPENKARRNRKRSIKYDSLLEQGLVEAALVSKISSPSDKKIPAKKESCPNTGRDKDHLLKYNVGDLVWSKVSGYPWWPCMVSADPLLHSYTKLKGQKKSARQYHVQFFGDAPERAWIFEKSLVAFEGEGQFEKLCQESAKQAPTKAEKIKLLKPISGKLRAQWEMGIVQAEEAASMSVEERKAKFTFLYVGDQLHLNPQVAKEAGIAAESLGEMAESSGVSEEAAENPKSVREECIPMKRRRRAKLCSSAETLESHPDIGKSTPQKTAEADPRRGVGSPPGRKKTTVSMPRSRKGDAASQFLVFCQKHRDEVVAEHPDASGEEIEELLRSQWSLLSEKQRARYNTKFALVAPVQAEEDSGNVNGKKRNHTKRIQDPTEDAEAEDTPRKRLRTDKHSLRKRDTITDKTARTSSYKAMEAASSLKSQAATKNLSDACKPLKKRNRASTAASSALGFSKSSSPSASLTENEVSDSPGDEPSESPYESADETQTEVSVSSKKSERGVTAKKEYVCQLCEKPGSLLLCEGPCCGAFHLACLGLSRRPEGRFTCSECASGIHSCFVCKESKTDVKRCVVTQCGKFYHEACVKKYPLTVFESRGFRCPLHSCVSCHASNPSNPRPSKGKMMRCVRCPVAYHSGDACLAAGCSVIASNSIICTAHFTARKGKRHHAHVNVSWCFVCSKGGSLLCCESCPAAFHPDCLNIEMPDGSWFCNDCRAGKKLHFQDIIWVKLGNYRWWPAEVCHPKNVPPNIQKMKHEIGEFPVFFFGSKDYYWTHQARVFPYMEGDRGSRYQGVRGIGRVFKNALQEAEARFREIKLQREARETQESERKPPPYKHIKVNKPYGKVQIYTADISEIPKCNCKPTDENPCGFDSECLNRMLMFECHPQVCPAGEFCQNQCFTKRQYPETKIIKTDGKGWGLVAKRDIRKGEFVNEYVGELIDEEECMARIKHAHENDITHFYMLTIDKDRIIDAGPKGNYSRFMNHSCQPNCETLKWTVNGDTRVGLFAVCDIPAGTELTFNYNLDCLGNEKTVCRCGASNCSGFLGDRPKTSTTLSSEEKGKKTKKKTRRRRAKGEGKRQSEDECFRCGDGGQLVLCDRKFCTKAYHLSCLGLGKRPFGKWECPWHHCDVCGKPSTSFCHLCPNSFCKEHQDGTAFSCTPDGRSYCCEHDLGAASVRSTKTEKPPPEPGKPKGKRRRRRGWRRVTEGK

[9] = biological target: Voltage-gated inwardly rectifying potassium channel KCNH2 (Homo sapiens, UniProt Q12809); settings: Potency;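 further: confirmatory quantitative high-throughput screen measuring inhibition of hERG channel activity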

Sequence of Procathepsin L (P07711 whole entry): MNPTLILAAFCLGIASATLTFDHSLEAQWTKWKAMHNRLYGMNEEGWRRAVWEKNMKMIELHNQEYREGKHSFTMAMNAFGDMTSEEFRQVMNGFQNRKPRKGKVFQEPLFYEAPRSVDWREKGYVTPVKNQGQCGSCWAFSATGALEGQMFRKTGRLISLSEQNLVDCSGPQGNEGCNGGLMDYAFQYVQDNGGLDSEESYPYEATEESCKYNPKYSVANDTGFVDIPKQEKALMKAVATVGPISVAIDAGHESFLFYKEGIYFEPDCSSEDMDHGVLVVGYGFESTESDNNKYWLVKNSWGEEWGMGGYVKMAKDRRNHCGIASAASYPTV
Sequence of Ion channel NompC (Q7T1G6 whole entry): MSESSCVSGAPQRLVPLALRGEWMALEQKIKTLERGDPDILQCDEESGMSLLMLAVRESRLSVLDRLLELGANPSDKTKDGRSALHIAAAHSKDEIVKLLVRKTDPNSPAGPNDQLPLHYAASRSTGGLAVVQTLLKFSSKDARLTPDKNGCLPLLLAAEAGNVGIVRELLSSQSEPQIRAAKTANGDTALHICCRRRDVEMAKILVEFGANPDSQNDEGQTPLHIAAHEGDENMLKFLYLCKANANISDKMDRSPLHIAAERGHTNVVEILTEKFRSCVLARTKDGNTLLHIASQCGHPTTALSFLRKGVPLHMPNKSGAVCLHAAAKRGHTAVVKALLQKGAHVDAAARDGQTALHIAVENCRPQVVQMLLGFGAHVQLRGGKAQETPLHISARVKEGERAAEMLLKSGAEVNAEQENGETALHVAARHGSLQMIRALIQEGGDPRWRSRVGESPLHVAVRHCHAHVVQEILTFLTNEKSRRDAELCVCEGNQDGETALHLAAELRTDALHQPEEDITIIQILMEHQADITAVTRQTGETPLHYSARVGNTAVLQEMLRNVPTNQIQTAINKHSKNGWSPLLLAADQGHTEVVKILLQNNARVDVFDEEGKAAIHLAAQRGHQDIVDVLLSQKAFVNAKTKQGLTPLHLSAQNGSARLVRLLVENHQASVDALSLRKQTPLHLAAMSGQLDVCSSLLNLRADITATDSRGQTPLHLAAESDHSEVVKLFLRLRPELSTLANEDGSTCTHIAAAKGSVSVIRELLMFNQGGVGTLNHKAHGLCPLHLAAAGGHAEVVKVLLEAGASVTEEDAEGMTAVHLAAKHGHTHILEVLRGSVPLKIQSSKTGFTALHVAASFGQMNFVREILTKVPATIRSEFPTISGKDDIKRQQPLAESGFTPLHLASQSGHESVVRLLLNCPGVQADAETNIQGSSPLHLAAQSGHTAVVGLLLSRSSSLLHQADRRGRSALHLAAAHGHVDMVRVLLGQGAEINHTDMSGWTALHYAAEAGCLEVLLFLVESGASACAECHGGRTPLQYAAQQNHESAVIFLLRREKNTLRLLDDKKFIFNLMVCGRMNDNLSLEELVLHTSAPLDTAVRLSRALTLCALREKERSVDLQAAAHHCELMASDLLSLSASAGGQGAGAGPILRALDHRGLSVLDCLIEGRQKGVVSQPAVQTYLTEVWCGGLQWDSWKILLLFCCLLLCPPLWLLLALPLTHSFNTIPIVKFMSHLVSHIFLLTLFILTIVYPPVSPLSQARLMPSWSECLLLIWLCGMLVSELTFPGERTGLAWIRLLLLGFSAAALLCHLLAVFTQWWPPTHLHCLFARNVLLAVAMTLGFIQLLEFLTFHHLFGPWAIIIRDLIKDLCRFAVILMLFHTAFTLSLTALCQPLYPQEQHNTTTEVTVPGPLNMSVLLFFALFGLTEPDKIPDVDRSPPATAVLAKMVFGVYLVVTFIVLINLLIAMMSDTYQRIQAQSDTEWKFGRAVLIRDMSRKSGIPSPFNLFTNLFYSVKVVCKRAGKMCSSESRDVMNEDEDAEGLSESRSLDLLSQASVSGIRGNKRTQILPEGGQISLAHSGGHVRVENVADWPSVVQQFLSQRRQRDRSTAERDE
Sequence of Luciferin 4-monooxygenase (P08659 whole entry): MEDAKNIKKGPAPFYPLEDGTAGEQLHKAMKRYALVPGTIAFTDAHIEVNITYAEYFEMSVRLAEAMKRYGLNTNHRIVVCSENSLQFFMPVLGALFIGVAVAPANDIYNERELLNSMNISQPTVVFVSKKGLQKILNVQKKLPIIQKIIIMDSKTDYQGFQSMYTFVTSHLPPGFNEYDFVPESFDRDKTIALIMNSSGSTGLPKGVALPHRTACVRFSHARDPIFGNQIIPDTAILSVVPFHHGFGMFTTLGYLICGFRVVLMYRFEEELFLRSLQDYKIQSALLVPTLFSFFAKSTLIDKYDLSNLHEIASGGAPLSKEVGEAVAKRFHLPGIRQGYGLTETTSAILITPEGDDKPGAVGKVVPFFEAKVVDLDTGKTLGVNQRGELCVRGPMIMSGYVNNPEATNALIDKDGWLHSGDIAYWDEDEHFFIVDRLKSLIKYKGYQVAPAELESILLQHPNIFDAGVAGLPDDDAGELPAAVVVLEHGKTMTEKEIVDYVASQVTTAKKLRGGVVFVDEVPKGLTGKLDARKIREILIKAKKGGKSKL
Sequence of Lysosomal acid glucosylceramidase (P04062 whole entry): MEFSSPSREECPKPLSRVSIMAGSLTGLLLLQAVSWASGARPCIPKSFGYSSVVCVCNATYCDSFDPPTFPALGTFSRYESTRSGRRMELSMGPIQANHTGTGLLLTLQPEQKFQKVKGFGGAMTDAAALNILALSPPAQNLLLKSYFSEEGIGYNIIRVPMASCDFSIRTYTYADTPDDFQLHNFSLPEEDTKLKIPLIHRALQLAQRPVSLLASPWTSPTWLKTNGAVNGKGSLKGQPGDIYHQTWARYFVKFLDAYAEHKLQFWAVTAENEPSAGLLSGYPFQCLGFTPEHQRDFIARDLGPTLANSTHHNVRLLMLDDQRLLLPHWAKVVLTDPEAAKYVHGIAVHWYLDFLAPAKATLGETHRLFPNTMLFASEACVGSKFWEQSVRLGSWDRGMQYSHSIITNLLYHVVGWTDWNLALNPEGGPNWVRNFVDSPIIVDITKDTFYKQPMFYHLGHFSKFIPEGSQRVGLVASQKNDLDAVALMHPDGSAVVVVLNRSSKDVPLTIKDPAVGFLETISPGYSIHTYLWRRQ
Sequence of Glyceraldehyde-3-phosphate dehydrogenase (P04406 whole entry): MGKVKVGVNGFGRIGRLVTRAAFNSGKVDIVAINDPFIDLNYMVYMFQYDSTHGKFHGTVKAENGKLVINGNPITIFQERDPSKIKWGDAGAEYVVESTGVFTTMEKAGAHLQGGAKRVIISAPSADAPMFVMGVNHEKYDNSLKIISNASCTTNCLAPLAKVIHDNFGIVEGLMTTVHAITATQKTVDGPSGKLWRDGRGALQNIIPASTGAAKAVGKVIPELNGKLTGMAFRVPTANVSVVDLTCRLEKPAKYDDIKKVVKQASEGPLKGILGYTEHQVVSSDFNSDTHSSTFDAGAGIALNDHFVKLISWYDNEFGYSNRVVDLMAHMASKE
Sequence of Albumin (P02769 whole entry): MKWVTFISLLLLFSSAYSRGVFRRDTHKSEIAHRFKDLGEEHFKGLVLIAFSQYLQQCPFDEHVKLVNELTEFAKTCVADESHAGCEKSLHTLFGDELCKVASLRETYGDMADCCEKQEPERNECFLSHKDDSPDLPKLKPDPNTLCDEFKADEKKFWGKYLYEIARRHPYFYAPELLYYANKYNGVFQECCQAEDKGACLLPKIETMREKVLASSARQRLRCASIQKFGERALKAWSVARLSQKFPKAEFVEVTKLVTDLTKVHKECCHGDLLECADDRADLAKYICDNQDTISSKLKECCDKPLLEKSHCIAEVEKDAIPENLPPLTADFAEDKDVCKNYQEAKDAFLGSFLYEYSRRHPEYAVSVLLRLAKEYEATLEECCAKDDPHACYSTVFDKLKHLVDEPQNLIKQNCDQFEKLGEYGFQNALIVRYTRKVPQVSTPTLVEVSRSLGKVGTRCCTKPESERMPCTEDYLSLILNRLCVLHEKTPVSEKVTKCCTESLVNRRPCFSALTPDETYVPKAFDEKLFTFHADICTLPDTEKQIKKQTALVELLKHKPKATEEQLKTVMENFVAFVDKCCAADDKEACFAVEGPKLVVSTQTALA

For `Cc1cc(C)c(C)c(S(=O)(=O)Nc2ccccc2C(=O)NCCCn2ccnc2)c1C`, the EC50 [1] was 61.1 µM (active), the IC50 [2] was > 100 µM (not active) and the EC50 (HT-1080) was > 50 µM (not active).

In the case of `Cc1ccc(N=C2CCc3ccccc3N2)cc1`, the EC50 [1] was 80.9 µM (active).

`Cc1ccn2cc(C(=O)Nc3ccccc3N3CCOCC3)nc2c1` was tested, and the EC50 [3] was > 50 µM (not active).

With `C=CCNc1nc(N2CCCC2)nc2ccccc12` the IC50 [4] was 11.8 µM (not active), the IC50 [5] was > 35 µM (not active) and the EC50 [6] was 1.19 µM (active).

`COC(=O)c1cc(C(=O)Nn2cnnc2)cc([N+](=O)[O-])c1` was tested, and the IC50 (Aspartyl aminopeptidase) was 2.37 µM (active) and the IC50 (Procathepsin L) was > 59.6 µM (not active).

In the case of `COc1ccc(S(=O)(=O)N2CCCCCC2)cc1Br`, the EC50 (Mucolipin-3) was 2.67 µM (active) and the EC50 (Ion channel NompC) was > 29.9 µM (not active).

`COc1ccc2nc(C)cc(SCC(=O)N/N=C/c3ccc(O)c(O)c3)c2c1` was tested, and the IC50 (Aspartyl aminopeptidase) was 2.48 µM (active), the IC50 (Procathepsin L) was > 59.6 µM (not active) and the IC50 [7] was 23.9 µM (active). The IC50 (Albumin) was > 94.1 µM (inactive) and the AC50 [8] was > 20 µM (inactive).

For `CC(C)(C)[C@]1(O)CCN2C[C@H]3c4ccccc4CCc4cccc(c43)[C@@H]2C1` [BUTACLAMOL HYDROCHLORIDE], the EC50 (Mucolipin-3) was 3.98 µM (active), the EC50 (Ion channel NompC) was > 29.9 µM (not active) and the AC50 [9] was 6.31 µM (active).
